# Assay results taken from ChEMBL document CHEMBL1156605, “Discovery of dihydroquinoxalinone acetamides containing bicyclic amines as potent Bradykinin B1 receptor antagonists” (Bioorg Med Chem Lett, 2008).
# Assays:
# B1 bradykinin receptor [1] = target: T1, B1 bradykinin receptor (Homo sapiens, UniProt P46663); assay: Displacement of [3H]DAK from human bradykinin B1 receptor expressed in CHO-D-/aequorin cells by rapid filtration technique; format: cell-based
# T1 sequence (P46663 whole entry): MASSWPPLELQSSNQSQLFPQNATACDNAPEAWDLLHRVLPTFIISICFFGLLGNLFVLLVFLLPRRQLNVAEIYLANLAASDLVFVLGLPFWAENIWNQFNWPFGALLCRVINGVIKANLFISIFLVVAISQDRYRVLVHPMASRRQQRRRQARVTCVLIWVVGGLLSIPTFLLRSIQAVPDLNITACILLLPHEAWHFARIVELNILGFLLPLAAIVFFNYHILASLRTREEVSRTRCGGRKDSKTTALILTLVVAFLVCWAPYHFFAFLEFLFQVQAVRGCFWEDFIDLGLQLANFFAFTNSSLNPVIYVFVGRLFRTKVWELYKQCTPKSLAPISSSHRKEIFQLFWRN
# [2] = Metabolic stability in human liver microsomes; format: ADME, Microsome; details: read-out: Stability
# B1 bradykinin receptor [3] = target: T1, B1 bradykinin receptor; assay: Antagonist activity at human bradykinin B1 receptor expressed in CHO-D-/aequorin cells; format: functional, cell-based
Ki (B1 bradykinin receptor [1]) [nM],microsomal CLint [2] [µL/min/mg],IC50 (B1 bradykinin receptor [3]) [nM],Structure (SMILES)
1.8,26,0.37,CC(C)(C)NCc1ccc2c(c1)OCC[C@H]2NC(=O)C[C@@H]1C(=O)Nc2ccccc2N1S(=O)(=O)c1ccccc1
,,0.18,O=C(C[C@@H]1C(=O)Nc2ccccc2N1S(=O)(=O)c1ccc(Cl)c(Cl)c1)NCCc1ccc(C2=NCCN2)cc1
,76,,O=C(C[C@@H]1C(=O)Nc2ccccc2N1S(=O)(=O)c1ccccc1)N[C@@H]1CCOc2cc(CN3CCCCC3)ccc21
0.7,156,0.86,CC(C)NCc1ccc2c(c1)OCC[C@H]2NC(=O)C[C@@H]1C(=O)Nc2ccccc2N1S(=O)(=O)c1ccc(Cl)c(Cl)c1
,128,,Cc1ccc(S(=O)(=O)N2c3ccccc3NC(=O)[C@H]2CC(=O)N[C@@H]2CCOc3cc(CN4CCCCC4)ccc32)cc1
,107,,CNCc1ccc2c(c1)OCC[C@H]2NC(=O)C[C@@H]1C(=O)Nc2ccccc2N1S(=O)(=O)c1ccc(Cl)c(Cl)c1
,407,,O=Cc1ccc2c(c1)OCC[C@H]2NC(=O)C[C@@H]1C(=O)Nc2ccccc2N1S(=O)(=O)c1ccc(Cl)c(Cl)c1
,264,,O=C(C[C@@H]1C(=O)Nc2ccccc2N1S(=O)(=O)c1ccc(Cl)c(Cl)c1)N[C@@H]1CCOc2cc(CO)ccc21
,264,,CC(C)CNCc1ccc2c(c1)OCC[C@H]2NC(=O)C[C@@H]1C(=O)Nc2ccccc2N1S(=O)(=O)c1ccc(Cl)c(Cl)c1
1.1,174,1.7,CC(C)(C)NCc1ccc2c(c1)OCC[C@H]2NC(=O)C[C@@H]1C(=O)Nc2ccccc2N1S(=O)(=O)c1ccc(Cl)c(Cl)c1
,127,,NCc1ccc2c(c1)OCC[C@H]2NC(=O)C[C@@H]1C(=O)Nc2ccccc2N1S(=O)(=O)c1ccc(Cl)c(Cl)c1
,389,,O=C(C[C@@H]1C(=O)Nc2ccccc2N1S(=O)(=O)c1ccc(Cl)c(Cl)c1)N[C@@H]1CCOc2cc(CN3CCCCC3)ccc21
,208,,CN(C)Cc1ccc2c(c1)OCC[C@H]2NC(=O)C[C@@H]1C(=O)Nc2ccccc2N1S(=O)(=O)c1ccc(Cl)c(Cl)c1
500,,> 40000,COc1ccccc1NC(=O)CC1C(=O)Nc2ccccc2N1S(=O)(=O)c1c(C)cc(C)cc1C (stereo unspecified)
